In patent publication US6777425B2, “Isoquinoline compounds having antiinfective activity” (Genesoft Pharmaceuticals, Inc., priority 2001, dated 2004):

Assays:
B. cereus ATCC 11778 = test: NCCLS broth microdilution MIC, B. cereus; format: cell-based, Bacillus cereus; conditions: organism A = B. cereus ATCC 11778
Excerpt: (§1) Compounds according to this invention were screened for their in vitro activities against selected species of bacteria and fungi. […]

C. albicans ATCC 38247 = test: Antifungal MIC, C. albicans; format: cell-based, Candida albicans; conditions: organism B = C. albicans ATCC 38247
Excerpt: as §1

E. faecalis ATCC 29212 = test: NCCLS broth microdilution MIC, E. faecalis; format: cell-based; conditions: organism C = E. faecalis ATCC 29212
Excerpt: as §1

E. faecium ATCC 51559 = test: NCCLS broth microdilution MIC, E. faecium (VRE); format: cell-based, Enterococcus faecium; conditions: organism D = E. faecium ATCC 51559 (VRE)
Excerpt: as §1

S. aureus ATCC 13709 = test: NCCLS broth microdilution MIC, S. aureus (MSSA); format: cell-based, Staphylococcus aureus; conditions: organism E = S. aureus ATCC 13709 (MSSA)
Excerpt: as §1

S. aureus ATCC 27660 = test: NCCLS broth microdilution MIC, S. aureus (MRSA); format: cell-based, Staphylococcus aureus; conditions: organism F = S. aureus ATCC 27660 (MRSA)
Excerpt: as §1

[1] = tested on: S. epidermidis ATCC 12228; test: NCCLS broth microdilution MIC, S. epidermidis; format: cell-based, Staphylococcus epidermidis; conditions: organism G = S. epidermidis ATCC 12228
Excerpt: as §1

S. pneumoniae ATCC 49619 = test: NCCLS broth microdilution MIC, S. pneumoniae ATCC 49619; format: cell-based, Streptococcus pneumoniae; conditions: organism H = S. pneumoniae ATCC 49619
Excerpt: as §1

S. pneumoniae ATCC 51422 = test: NCCLS broth microdilution MIC, S. pneumoniae (PRSP); format: cell-based, Streptococcus pneumoniae; conditions: organism I = S. pneumoniae ATCC 51422 (PRSP)
Excerpt: as §1

Row | Structure (SMILES) | Minimum Inhibitory Concentration (MIC) (B. cereus ATCC 11778) | Minimum Inhibitory Concentration (MIC) (C. albicans ATCC 38247) | Minimum Inhibitory Concentration (MIC) (E. faecalis ATCC 29212) | Minimum Inhibitory Concentration (MIC) (E. faecium ATCC 51559) | Minimum Inhibitory Concentration (MIC) (S. aureus ATCC 13709) | Minimum Inhibitory Concentration (MIC) (S. aureus ATCC 27660) | Minimum Inhibitory Concentration (MIC) [1] | Minimum Inhibitory Concentration (MIC) (S. pneumoniae ATCC 49619) | Minimum Inhibitory Concentration (MIC) (S. pneumoniae ATCC 51422)
1 | Cn1cc(NC(=O)c2cc(NC(=O)c3cc(NC(=O)c4cc5ccccc5cn4)cs3)cn2C)cc1C(=O)NCCN1CCOCC1 [Ib-51] | +++ (+++ = MIC ≦ 4) | ++ (++ = 4 < MIC < 12) | +++ (+++ = MIC ≦ 4) | ++ (++ = 4 < MIC < 12) | +++ (+++ = MIC ≦ 4) | +++ (+++ = MIC ≦ 4) | ++ (++ = 4 < MIC < 12) | +++ (+++ = MIC ≦ 4) | + (+ = 12 ≦ MIC ≦ 32)
2 | Cn1cc(NC(=O)c2cc3ccccc3cn2)cc1C(=O)Nc1cc(C(=O)Nc2c[nH]c(C(=O)NCCN3CCSCC3)c2)n(C)c1 [Ib-54] | +++ (+++ = MIC ≦ 4) | >32 µg/mL | +++ (+++ = MIC ≦ 4) | +++ (+++ = MIC ≦ 4) | +++ (+++ = MIC ≦ 4) | +++ (+++ = MIC ≦ 4) | ++ (++ = 4 < MIC < 12) | +++ (+++ = MIC ≦ 4) | +++ (+++ = MIC ≦ 4)
3 | Cn1cc(NC(=O)c2cc(NC(=O)c3cc(NC(=O)c4cc5ccccc5cn4)c[nH]3)cn2C)cc1C(=O)NCCN1CCC(F)(F)CC1 [Ib-78] | +++ (+++ = MIC ≦ 4) | >32 µg/mL | +++ (+++ = MIC ≦ 4) | +++ (+++ = MIC ≦ 4) | +++ (+++ = MIC ≦ 4) | +++ (+++ = MIC ≦ 4) | +++ (+++ = MIC ≦ 4) | +++ (+++ = MIC ≦ 4) | +++ (+++ = MIC ≦ 4)
4 | Cn1cc(NC(=O)c2cc(NC(=O)c3cc(NC(=O)c4cc5ccccc5cn4)cn3C)c[nH]2)cc1C(=O)NCCN1CCC(F)CC1 [Ib-85] | +++ (+++ = MIC ≦ 4) | + (+ = 12 ≦ MIC ≦ 32) | +++ (+++ = MIC ≦ 4) | +++ (+++ = MIC ≦ 4) | +++ (+++ = MIC ≦ 4) | +++ (+++ = MIC ≦ 4) | +++ (+++ = MIC ≦ 4) | +++ (+++ = MIC ≦ 4) | +++ (+++ = MIC ≦ 4)
5 | Cn1cc(NC(=O)c2cc(NC(=O)c3cc(NC(=O)c4cc5ccccc5cn4)cn3C)c[nH]2)cc1C(=O)NCCN1CCSCC1 [Ib-87] | +++ (+++ = MIC ≦ 4) | >32 µg/mL | +++ (+++ = MIC ≦ 4) | +++ (+++ = MIC ≦ 4) | +++ (+++ = MIC ≦ 4) | +++ (+++ = MIC ≦ 4) | +++ (+++ = MIC ≦ 4) | +++ (+++ = MIC ≦ 4) | +++ (+++ = MIC ≦ 4)
6 | Cn1cc(NC(=O)c2cc(NC(=O)c3cc(NC(=O)c4cc5ccccc5cn4)cn3C)c[nH]2)cc1C(=O)NCCN1CCC(F)(F)CC1 [Ib-88] | +++ (+++ = MIC ≦ 4) | >32 µg/mL | +++ (+++ = MIC ≦ 4) | +++ (+++ = MIC ≦ 4) | +++ (+++ = MIC ≦ 4) | +++ (+++ = MIC ≦ 4) | +++ (+++ = MIC ≦ 4) | +++ (+++ = MIC ≦ 4) | +++ (+++ = MIC ≦ 4)
7 | C[C@@H]1CCC[C@H](C)N1CCNC(=O)c1cc(NC(=O)c2ccc(NC(=O)c3cc(NC(=O)c4cc5ccccc5cn4)cn3C)cc2)cn1C [Ic-6] | +++ (+++ = MIC ≦ 4) | >32 µg/mL | +++ (+++ = MIC ≦ 4) |  | +++ (+++ = MIC ≦ 4) | +++ (+++ = MIC ≦ 4) |  | +++ (+++ = MIC ≦ 4) | +++ (+++ = MIC ≦ 4)

The next lines start with the values.

Row | Minimum Inhibitory Concentration (MIC) (B. cereus ATCC 11778) | Minimum Inhibitory Concentration (MIC) (C. albicans ATCC 38247) | Minimum Inhibitory Concentration (MIC) (E. faecalis ATCC 29212) | Minimum Inhibitory Concentration (MIC) (E. faecium ATCC 51559) | Minimum Inhibitory Concentration (MIC) (S. aureus ATCC 13709) | Minimum Inhibitory Concentration (MIC) (S. aureus ATCC 27660) | Minimum Inhibitory Concentration (MIC) [1] | Minimum Inhibitory Concentration (MIC) (S. pneumoniae ATCC 49619) | Minimum Inhibitory Concentration (MIC) (S. pneumoniae ATCC 51422) | Structure (SMILES)
8 | +++ (+++ = MIC ≦ 4) | >32 µg/mL | +++ (+++ = MIC ≦ 4) | +++ (+++ = MIC ≦ 4) | +++ (+++ = MIC ≦ 4) | +++ (+++ = MIC ≦ 4) | +++ (+++ = MIC ≦ 4) | +++ (+++ = MIC ≦ 4) | +++ (+++ = MIC ≦ 4) | Cn1cc(NC(=O)c2cc(NC(=O)c3cc(NC(=O)c4cc5ccccc5cn4)c[nH]3)cn2C)cc1C(=O)NCCN1CCOCC1 [Ib-50]
9 | +++ (+++ = MIC ≦ 4) | >32 µg/mL | +++ (+++ = MIC ≦ 4) | +++ (+++ = MIC ≦ 4) | +++ (+++ = MIC ≦ 4) | +++ (+++ = MIC ≦ 4) | +++ (+++ = MIC ≦ 4) | +++ (+++ = MIC ≦ 4) | +++ (+++ = MIC ≦ 4) | Cn1cc(NC(=O)c2cc3ccccc3cn2)cc1C(=O)Nc1cc(C(=O)Nc2cc(C(=O)NCCN3CCOCC3)ns2)n(C)c1 [Ib-52]
10 | +++ (+++ = MIC ≦ 4) | >32 µg/mL | +++ (+++ = MIC ≦ 4) | +++ (+++ = MIC ≦ 4) | +++ (+++ = MIC ≦ 4) | +++ (+++ = MIC ≦ 4) | +++ (+++ = MIC ≦ 4) | +++ (+++ = MIC ≦ 4) | +++ (+++ = MIC ≦ 4) | COCCOCCOCCn1cc(NC(=O)c2cc(NC(=O)c3cc4ccccc4cn3)cn2C)cc1C(=O)Nc1cc(C(=O)NCCN2CCOCC2)n(C)c1 [Ib-83]
11 | +++ (+++ = MIC ≦ 4) | + (+ = 12 ≦ MIC ≦ 32) | +++ (+++ = MIC ≦ 4) | +++ (+++ = MIC ≦ 4) | +++ (+++ = MIC ≦ 4) | +++ (+++ = MIC ≦ 4) | +++ (+++ = MIC ≦ 4) | +++ (+++ = MIC ≦ 4) | +++ (+++ = MIC ≦ 4) | Cn1cc(NC(=O)c2cc(NC(=O)c3cc(NC(=O)c4cc5ccccc5cn4)cn3C)c[nH]2)cc1C(=O)NCCN1CCCC1 [Ib-84]
12 | +++ (+++ = MIC ≦ 4) | ++ (++ = 4 < MIC < 12) | +++ (+++ = MIC ≦ 4) | +++ (+++ = MIC ≦ 4) | +++ (+++ = MIC ≦ 4) | +++ (+++ = MIC ≦ 4) | +++ (+++ = MIC ≦ 4) | +++ (+++ = MIC ≦ 4) | +++ (+++ = MIC ≦ 4) | Cn1cc(NC(=O)c2cc(NC(=O)c3cc(NC(=O)c4cc5ccccc5cn4)cn3C)c[nH]2)cc1C(=O)NCCN1CCCCC1 [Ib-86]
